System: 317291-083-R-J1-PDC complex spheroid growth
Test: Anticancer human tumor 317291-083-R-J1-PDC patient-derived soft tissue sarcoma cell line growth inhibition [Asc]
Details: for IC50: curve of first compound; for viability, T/C: stronger effect = lower value
In short: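 Stromal components (HUVEC and hMSC) are co-assembled with the cancer cells into multicellular spheroids. Drugs are then added singly or paired, at concentrations falling by half-log increments from a clinically achievable maximum, capped at 10 microM without known Cmax.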

[1] = second compound 0.00316 µM, first compound 0.00316 µM
[2] = second compound 0.00316 µM, first compound 0.01 µM
[3] = second compound 0.00316 µM, first compound 0.0316 µM
[4] = second compound 0.00316 µM, first compound 0.1 µM
[5] = second compound 0.01 µM, first compound 0.00316 µM
[6] = second compound 0.01 µM, first compound 0.01 µM
[7] = second compound 0.01 µM, first compound 0.0316 µM
[8] = second compound 0.01 µM, first compound 0.1 µM
[9] = second compound 0.0316 µM, first compound 0.00316 µM
[10] = second compound 0.0316 µM, first compound 0.01 µM
[11] = second compound 0.0316 µM, first compound 0.0316 µM
[12] = second compound 0.0316 µM, first compound 0.1 µM
[13] = second compound 0.1 µM, first compound 0.00316 µM
[14] = second compound 0.1 µM, first compound 0.01 µM
[15] = second compound 0.1 µM, first compound 0.0316 µM
[16] = second compound 0.1 µM, first compound 0.1 µM
[17] = second compound 0.316 µM, first compound 0.00316 µM
[18] = second compound 0.316 µM, first compound 0.01 µM
[19] = second compound 0.316 µM, first compound 0.0316 µM
[20] = second compound 0.316 µM, first compound 0.1 µM
[21] = second compound 1 µM, first compound 0.00316 µM
[22] = second compound 1 µM, first compound 0.01 µM
[23] = second compound 1 µM, first compound 0.0316 µM
[24] = second compound 1 µM, first compound 0.1 µM
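Also: compound exposure lasted seven days after spheroids formed for three days.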
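For viability, T/C in this document: 100% = DMSO vehicle control wells.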

Compound COc1c(OCCCN2CCOCC2)ccc2c3n(c(=NC(=O)c4cnc(N)nc4)nc12)CCN3 + CNC(C)C(=O)NC1CN(S(=O)(=O)c2cccc(S(=O)(=O)N3CCC4CCC(C(=O)NC(c5ccccc5)c5ccccc5)N4C(=O)C(NC(=O)C(C)NC)C3)c2)CCC2CCC(C(=O)NC(c3ccccc3)c3ccccc3)N2C1=O has an IC50 (second compound 0.00316 µM) of 79.4 nM, an IC50 (second compound 0.01 µM) of 68.4 nM and an IC50 (second compound 0.0316 µM) of 68.7 nM. The IC50 (second compound 0.1 µM) was 5.31 nM, the IC50 (second compound 0.316 µM) was 43 nM and the IC50 (second compound 1 µM) was less than 3.16 nM. For the same compound, the viability, T/C [1] was 80.1%, the viability, T/C [2] was 81% and the viability, T/C [3] was 68.1%. The viability, T/C [4] was 43.5%, the viability, T/C (second compound 0.00316 µM, first compound 0.316 µM) was 28.3% and the viability, T/C (second compound 0.00316 µM, first compound 1 µM) was 15.5%. The viability, T/C [5] was 72.6%, the viability, T/C [6] was 103% and the viability, T/C [7] was 61.4%. It also gave a viability, T/C [8] of 42.6%, a viability, T/C (second compound 0.01 µM, first compound 0.316 µM) of 22.7% and a viability, T/C (second compound 0.01 µM, first compound 1 µM) of 13.3%. For the same compound, the viability, T/C [9] was 76.5%, the viability, T/C [10] was 73.2% and the viability, T/C [11] was 77%. For the same compound, the viability, T/C [12] was 37.7%, the viability, T/C (second compound 0.0316 µM, first compound 0.316 µM) was 18.2% and the viability, T/C (second compound 0.0316 µM, first compound 1 µM) was 11%. It also gave a viability, T/C [13] of 53.8%, a viability, T/C [14] of 44.8% and a viability, T/C [15] of 38.9%. For the same compound, the viability, T/C [16] was 34.2%, the viability, T/C (second compound 0.1 µM, first compound 0.316 µM) was 16.9% and the viability, T/C (second compound 0.1 µM, first compound 1 µM) was 10.7%. It also gave a viability, T/C [17] of 56%, a viability, T/C [18] of 44.4% and a viability, T/C [19] of 68.8%. The viability, T/C [20] was 32.3%, the viability, T/C (second compound 0.316 µM, first compound 0.316 µM) was 13.8% and the viability, T/C (second compound 0.316 µM, first compound 1 µM) was 11%. For the same compound, the viability, T/C [21] was 33.2%, the viability, T/C [22] was 36% and the viability, T/C [23] was 27.2%. The viability, T/C [24] was 19.2%, the viability, T/C (second compound 1 µM, first compound 0.316 µM) was 9.14% and the viability, T/C (second compound 1 µM, first compound 1 µM) was 5.37%.
With NC1CCC(NC2CC2c2ccccc2)CC1 (centres undefined) + CNC(C)C(=O)NC1CN(S(=O)(=O)c2cccc(S(=O)(=O)N3CCC4CCC(C(=O)NC(c5ccccc5)c5ccccc5)N4C(=O)C(NC(=O)C(C)NC)C3)c2)CCC2CCC(C(=O)NC(c3ccccc3)c3ccccc3)N2C1=O the IC50 (second compound 0.00316 µM) was greater than 100 nM, the IC50 (second compound 0.01 µM) was greater than 100 nM and the IC50 (second compound 0.0316 µM) was greater than 100 nM. The IC50 (second compound 0.1 µM) was greater than 100 nM, the IC50 (second compound 0.316 µM) was less than 0.316 nM and the IC50 (second compound 1 µM) was less than 0.316 nM. It also gave a viability, T/C (second compound 0.00316 µM, first compound 0.000316 µM) of 83.2%, a viability, T/C (second compound 0.00316 µM, first compound 0.001 µM) of 88.8% and a viability, T/C [1] of 84.5%. For the same compound, the viability, T/C [2] was 96%, the viability, T/C [3] was 80.5% and the viability, T/C [4] was 74.5%. It also gave a viability, T/C (second compound 0.01 µM, first compound 0.000316 µM) of 93%, a viability, T/C (second compound 0.01 µM, first compound 0.001 µM) of 80.6% and a viability, T/C [5] of 86.9%. For the same compound, the viability, T/C [6] was 93.7%, the viability, T/C [7] was 82.3% and the viability, T/C [8] was 76.7%. For the same compound, the viability, T/C (second compound 0.0316 µM, first compound 0.000316 µM) was 102%, the viability, T/C (second compound 0.0316 µM, first compound 0.001 µM) was 73.7% and the viability, T/C [9] was 77%. It also gave a viability, T/C [10] of 70.1%, a viability, T/C [11] of 89.5% and a viability, T/C [12] of 57.4%. For the same compound, the viability, T/C (second compound 0.1 µM, first compound 0.000316 µM) was 67.5%, the viability, T/C (second compound 0.1 µM, first compound 0.001 µM) was 52% and the viability, T/C [13] was 69.1%. For the same compound, the viability, T/C [14] was 49%, the viability, T/C [15] was 69.3% and the viability, T/C [16] was 64.7%. The viability, T/C (second compound 0.316 µM, first compound 0.000316 µM) was 43.2%, the viability, T/C (second compound 0.316 µM, first compound 0.001 µM) was 56.5% and the viability, T/C [17] was 48%. The viability, T/C [18] was 54%, the viability, T/C [19] was 61.9% and the viability, T/C [20] was 44%. The viability, T/C (second compound 1 µM, first compound 0.000316 µM) was 37.5%, the viability, T/C (second compound 1 µM, first compound 0.001 µM) was 39.7% and the viability, T/C [21] was 34.5%. For the same compound, the viability, T/C [22] was 36.8%, the viability, T/C [23] was 46.1% and the viability, T/C [24] was 36.8%.
